Reference: patent US7094909B2, “HIV protease inhibitors, compositions containing the same, their pharmaceutical uses and materials for their synthesis” (priority 2001, dated 2006)
Like-named read-outs stand apart in the source and are kept apart here.

Tests used:
[1] = target: T1, HIV-1 protease (Q7S mutant form) (Human immunodeficiency virus type 1 group M subtype B, UniProt P04585, Q495S); test: HIV-1 Protease RET assay; type: biochemical
T1 construct: made in house
Method in brief: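 Q7S HIV-1 protease, refolded from urea, 2 nM active dimer with 5 μM EDANS/DABCYL peptide cleaved at Tyr-Pro; fluorescence 340/490 nm. 12 min at 37 °C in 0.1M sodium acetate pH 4.8, 1M NaCl, 10% DMSO. Ki from Morrison tight-binding fit.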

[2] = tested on: HIV-1 (HIV-1 RF, HIV-1 NL4-3) in CEM-SS / MT-2 cells; test: Cytopathic effect (CPE) inhibition assay (XTT/MTT dye reduction); type: cell-based
Experimental: T-cell lines, CEM-SS, and MT-2, and viruses HIV-1 RF and HIV-1 NL4-3 (pNL4-3) were obtained from the National Institutes of Health (AIDS Research and Reference Reagent Program, Bethesda, Md.).
Cytopathic Effect (CPE) Inhibition Assays
The ability of compounds to protect cells against HIV infection was measured by the […] dye reduction method, essentially as described (See Pauwels, R. Balzarini, J. Baba, M. Snoeck, R. Schols, D. Herdewijn, P. Desmyter, J. and De Clercq, E. 1988, “Rapid and automated tetrazolium-based colorimetric assay for the detection of anti-HIV compounds,”. J Virol. Methods., 20: 309–321 and Weislow, O. S. Kiser, R. Fine, D. L. Bader, J. Shoemaker, R. H. and Boyd, M. R. 1989. “New soluble-formazan assay for HIV-1 cytopathic effects: application to high-flux screening of synthetic and natural products for AIDS-antiviral activity”. J. Natl. Cancer Inst. 81:577–586). Subject cells were infected with test virus at an moi of 0.025 to 0.819 or mock infected with medium only and added at 2×10^4 cells per well into 96 well plates containing half-log dilutions of test compounds. Six days later, 50 μl of XTT (1 mg/ml XTT tetrazolium, 0.02 nM phenazine methosulfate) was added to the wells and the plate was reincubated for four hours. Viability, as determined by the amount of XTT formazan produced, was quantified spectrophotometrically by absorbance at 450 nm. Data from CPE assays were expressed as the percent of formazan produced in compound-treated cells compared to formazan produced in wells of uninfected, compound-free cells. The fifty percent effective concentration (EC50) was calculated as the concentration of compound that effected an increase in the percentage of formazan production in infected, compound-treated cells to 50% of that produced by uninfected, compound-free cells. The 50% cytotoxicity concentration (CC50) was calculated as the concentration of compound that decreased the percentage of formazan produced in uninfected, compound-treated cells to 50% of that produced in uninfected, compound-free cells. The therapeutic index was calculated by dividing the cytotoxicity (CC50) by the antiviral activity (EC50).

[3] = Human immunodeficiency virus 1, NL43, unit inferred, read-out: EC50
[4] = Ave. Ki (nM), RET assay, Q7S enzyme, Morrison tight binding fit
[5] = Human immunodeficiency virus 1, NL43, read-out: Ave CPE EC50

Structure (SMILES)	Ki ([1]; Ki, unit inferred) [nM]	EC50 [2, 3] [nM]	Ki [1, 4] [nM]	EC50 [2, 5] [nM]
Cc1c(O)cccc1C(=O)N[C@@H](Cc1ccccc1)[C@H](O)C(=O)N1CSC(C)(C)[C@H]1C(=O)N[C@H]1CC1c1ccccc1 (some centres unmarked)	17.2	1330		
Cc1cccc(C)c1OCC(=O)N[C@@H](Cc1ccccc1)[C@H](O)C(=O)N1CSC(C)(C)[C@H]1C(=O)NCc1c(F)cccc1F	0.32	1880		
COc1cccc(CNC(=O)[C@@H]2CC(F)(F)CN2C(=O)[C@@H](O)[C@H](Cc2ccccc2)NC(=O)c2cccc(O)c2C)c1 [Example C12, (S)-4,4-Difluoro-1-[(2S,3S)-2-hydroxy-3-(3-hydroxy-2-methyl-benzoylamino)-4-phenyl-butyryl]-pyrrolidine-2-carboxylic acid 3-methoxy-benzylamide]			2.7	1770
Cc1ccccc1CNC(=O)[C@@H]1CCCCN1C(=O)[C@@H](O)[C@H](Cc1ccccc1)NC(=O)c1cccc(O)c1C	51.7	5870		
Cc1c(O)cccc1C(=O)N[C@@H](Cc1ccccc1)[C@H](O)C(=O)N1CSC(C)(C)[C@H]1C(=O)N1CCCCC1 [Example A34, N-{(1S,2S)-1-Benzyl-3-[(R)-5,5-dimethyl-4-(1-piperidin-1-yl-methanoyl)-thiazolidin-3-yl]-2-hydroxy-3-oxo-propyl}-3-hydroxy-2-methyl-benzamide]			1.4	386
CCN1CCc2c(C(=O)N[C@@H](Cc3ccccc3)[C@H](O)C(=O)N3CSC(C)(C)[C@H]3C(=O)NCc3ccccc3C)cccc21	6.7	1010		
CC1(C)SCN(C(=O)[C@@H](O)[C@H](Cc2ccccc2)NC(=O)c2cccc3c2CCN3)[C@@H]1C(=O)N[C@H]1CCOc2ccccc21 [Example B29, 2,3-Dihydro-1H-indole-4-carboxylic acid {(1S,2S)-1-benzyl-3-[(R)-4-((S)-chroman-4-ylcarbamoyl)-5,5-dimethyl-thiazolidin-3-yl]-2-hydroxy-3-oxo-propyl}-amide]			0.82	63
Cc1c(O)cccc1C(=O)N[C@@H](Cc1ccccc1)[C@H](O)C(=O)N1CSC(C)(C)[C@H]1C(=O)NC1CCC1 [Example A26, (R)-3-((2S,3S)-2-Hydroxy-3-{[1-(3-hydroxy-2-methyl-phenyl)-methanoyl]-amino}-4-phenyl-butanoyl)-5,5-dimethyl-thiazolidine-4-carboxylic acid cyclobutylamide]			0.6	168
Cc1c(O)cccc1C(=O)N[C@@H](Cc1ccccc1)[C@H](O)C(=O)N1CSC(C)(C)[C@H]1C(=O)NC1CC1c1ccccc1 (mixture of isomers) [Example A28, (R)-3-((2S,3S)-2-Hydroxy-3-{[1-(3-hydroxy-2-methyl-phenyl)-methanoyl]-amino}-4-phenyl-butanoyl)-5,5-dimethyl-thiazolidine-4-carboxylic acid (2-phenyl-cyclopropyl)-amide]			3.4	327
CCCCOC(=O)N[C@@H](Cc1ccccc1)[C@H](O)C(=O)N1CSC(C)(C)C1C(=O)NCc1ccccc1C (some centres unmarked)	7.6	1760		
CC1(C)SCN(C(=O)[C@@H](O)[C@H](Cc2ccccc2)NC(=O)c2cccc3c2CCN3)[C@@H]1C(=O)N[C@@H]1CCOc2ccccc21	7.4	1960		
C#CCOC(=O)N[C@@H](Cc1ccccc1)[C@H](O)C(=O)N1CSC(C)(C)[C@H]1C(=O)NCc1ccccc1C [Example B10, {(1S,2S)-1-Benzyl-3-[(R)-5,5-dimethyl-4-(2-methyl-benzylcarbamoyl)-thiazolidin-3-yl]-2-hydroxy-3-oxo-propyl}-carbamic acid prop-2-ynyl ester]			0.57	386
CCCOC(=O)N[C@@H](Cc1ccccc1)[C@H](O)C(=O)N1CSC(C)(C)[C@H]1C(=O)NCc1ccccc1C	1.1	1550		
Cc1c(O)cccc1C(=O)N[C@@H](Cc1ccccc1)[C@H](O)C(=O)N1CSC(C)(C)[C@H]1C(=O)NCc1ccccn1 [Example A3, (R)-3-((2S,3S)-2-Hydroxy-3-{[1-(3-hydroxy-2-methyl-phenyl)-methanoyl]-amino}-4phenyl-butanoyl)-5,5-dimethyl-thiazolidine-4-carboxylic acid (pyridin-2-ylmethyl)-amide]			0.51	156
Cc1c(O)cccc1C(=O)N[C@@H](Cc1ccccc1)[C@H](O)C(=O)N1CSC(C)(C)[C@H]1C(=O)NC1CCCCCC1 [Example A31, (R)-3-((2S,3S)-2-Hydroxy-3-{[1-(3-hydroxy-2-methyl-phenyl)-methanoyl]-amino}-4-phenyl-butanoyl)-5,5-dimethyl-thiazolidine-4-carboxylic acid cycloheptylamide]			0.44	62
C#CCCC(=O)N[C@@H](Cc1ccccc1)[C@H](O)C(=O)N1CSC(C)(C)[C@H]1C(=O)NCc1ccccc1C [Example B18, (R)-3-((2S,3S)-2-Hydroxy-3-pent-4-ynoylamino-4-phenyl-butyryl)-5,5-dimethyl-thiazolidine-4-carboxylic acid 2-methyl-benzylamide]			0.56	1250
COc1ccc(CNC(=O)[C@@H]2CC(F)(F)CN2C(=O)[C@@H](O)[C@H](Cc2ccccc2)NC(=O)c2cccc(O)c2C)cc1 [Example C13, (S)-4,4-Difluoro-1-[(2S,3S)-2-hydroxy-3-(3-hydroxy-2-methyl-benzoylamino)-4-phenyl-butyryl]-pyrrolidine-2-carboxylic acid 4-methoxy-benzylamide]			0.59	1180
C=CCNC(=O)[C@H]1N(C(=O)[C@@H](O)[C@H](Cc2ccccc2)NC(=O)CSc2nc[nH]n2)CSC1(C)C [Example B25, (R)-3-{(2S,3S)-2-Hydroxy-4-phenyl-3-[2-(1H-[1,2,4]triazol-3-ylsulfanyl)-ethanoylamino]-butanoyl}-5,5-dimethyl-thiazolidine-4-carboxylic acid allylamide]			21	> 1000
Cc1c(O)cccc1C(=O)N[C@@H](Cc1ccccc1)[C@H](O)C(=O)N1CSC(C)(C)[C@H]1C(=O)NCc1ccncc1 [Example A8, (R)-3-((2S,3S)-2-Hydroxy-3-{[1l-(3-hydroxy-2-methyl-phenyl)-methanoyl]-amino}-4-phenyl-butanoyl)-5,5-dimethyl-thiazolidine-4-carboxylic acid (pyridin-4-ylmethyl)-amide]			1.4	451
Cc1c(O)cccc1C(=O)N[C@@H](Cc1ccccc1)[C@H](O)C(=O)N1CSC(C)(C)[C@H]1C(=O)N[C@@H]1CCCc2ncccc21 [Example A43, 3-[2-Hydroxy-3-(3-hydroxy-2-methyl-benzoylamino)-4-phenyl-butyryl]-5,5-dimethyl-thiazolidine-4-carboxylic acid (5,6,7,8-tetrahydro-quinolin-5-yl)-amide]			2.6	534
Cc1ccccc1C(=O)N[C@@H](Cc1ccccc1)[C@H](O)C(=O)N1CSC(C)(C)[C@H]1C(=O)NCc1cccs1 [Example B79, (R)-3-{(2S,3S)-2-Hydroxy-4phenyl-3-[(1-o-tolyl-methanoyl)-amino]-butanoyl}-5,5-dimethyl-thiazolidine-4-carboxylic acid (thiophen-2-ylmethyl)-amide]			0.78	530
CC1(C)SCN(C(=O)[C@@H](O)[C@H](Cc2ccccc2)NC(=O)O[C@H]2CCOC2)[C@@H]1C(=O)NCC1CC1 [Example B26, {(1S,2S)-1-Benzyl-3-[(R)-4-(cyclopropylmethyl-carbamoyl)-5,5-dimethyl-thiazolidin-3-yl]-2-hydroxy-3-oxo-propyl}-carbamic acid (S)-(tetrahydro-furan-3-yl) ester]			2.1	348
Cc1ccccc1CNC(=O)[C@H]1N(C(=O)[C@@H](O)[C@H](Cc2ccccc2)NC(=O)COc2ccccc2C)CSC1(C)C	0.89	1560		
COc1ccc(CNC(=O)N[C@@H](Cc2ccccc2)[C@H](O)C(=O)N2CSC(C)(C)[C@H]2C(=O)NCc2ccccc2C)cc1 [Example B60, 3-{(S)-2-Hydroxy-3-[3-(4-methoxy-benzyl)-ureido]-4phenyl-butyryl}-5,5-dimethyl-thiazolidine-4-carboxylic acid 2-methyl-benzylamide]			1.1	> 3200
Cc1ccccc1CNC(=O)[C@H]1N(C(=O)[C@@H](O)[C@H](Cc2ccccc2)NC(=O)OCCCl)CSC1(C)C	0.44	1430		
